Experimental data published in patent US20130269064A1, “INSECTICIDAL COMPOUNDS” (SYNGENTA PARTICIPATIONS AG, priority 2010, published 2013).

Columns and labels:
Assay type in all cases: in vivo
Heliothis virescens = Heliothis virescens (tobacco budworm) egg/artificial diet test; conditions: 96 h, 200 ppm (concentration in well 18 ppm), eggs 0-24 h old on artificial diet, 4 days, egg mortality, larval mortality, growth regulation
Method: Heliothis virescens (Tobacco Budworm): Eggs (0-24 h old) were placed in 24-well microtiter plate on artificial diet and treated with test solutions at an application rate of 200 ppm (concentration in well 18 ppm) by pipetting. After an incubation period of 4 days, samples were checked for egg mortality, larval mortality and growth regulation.

Diabrotica balteata = Diabrotica balteata (corn root worm) artificial diet test; conditions: 120 h, 200 ppm (concentration in well 18 ppm), L2 larvae, 5 days, larval mortality and growth regulation
Method: Diabrotica balteata (Corn Root Worm): A 24-well microtiter plate (MTP) with artificial diet was treated with test solutions at an application rate of 200 ppm (concentration in well 18 ppm) by pipetting. After drying, the MTP's were infested with larvae (L2) (6-10 per well). After an incubation period of 5 days, samples were checked for larval mortality, and growth regulation.

Tetranychus urticae = Tetranychus urticae (two-spotted spider mite) bean leaf disc test; conditions: foliar, 192 h, 200 ppm sprayed on bean leaf discs, mixed ages, 8 days, egg, larval and adult mortality
From the text: Tetranychus urticae (Two-Spotted Spider Mite): Bean leaf discs on agar in 24-well microtiter plates were sprayed with test solutions at an application rate of 200 ppm. After drying, the leaf discs are infested with mite populations of mixed ages. 8 days later, discs are checked for egg mortality, larval mortality, and adult mortality.

Thrips tabaci = Thrips tabaci (onion thrips) sunflower leaf disc test; conditions: foliar, 168 h, 200 ppm sprayed on sunflower leaf discs, mixed ages, 7 days, mortality
Method: Thrips tabaci (Onion Thrips): Sunflower leaf discs were placed on agar in a 24-well microtiter plate and sprayed with test solutions at an application rate of 200 ppm. After drying, the leaf discs were infested with an […] population of mixed ages. After an incubation period of 7 days, samples were checked for mortality.

Spodoptera littoralis = Spodoptera littoralis (Egyptian cotton leafworm) cotton leaf disc test; conditions: foliar, 72 h, 200 ppm sprayed on cotton leaf discs, 5 L1 larvae, mortality, feeding behaviour, growth regulation 3 DAT
From the text: Spodoptera littoralis (Egyptian Cotton Leafworm): Cotton leaf discs were placed on agar in a 24-well microtiter plate and sprayed with test solutions at an application rate of 200 ppm. After drying, the leaf discs were infested with 5 L1 larvae. The samples were checked for mortality, feeding behaviour, and growth regulation 3 days after treatment (DAT).

Plutella xylostella = Plutella xylostella (diamond back moth) artificial diet test; conditions: 144 h, 200 ppm (concentration in well 18 ppm), L2 larvae, 6 days, larval mortality and growth regulation
Method: Plutella xylostella (Diamond Back Moth): A 24-well microtiter plate (MTP) with artificial diet was treated with test solutions at an application rate of 200 ppm (concentration in well 18 ppm) by pipetting. After drying, the MTP's were infested with L2 larvae (7-12 per well). After an incubation period of 6 days, samples were checked for larval mortality and growth regulation.

Measured: pest or weed control at 200 ppm

Cc1cc(C#N)ccc1C(=O)Nc1cc(C(=O)Nc2c(C(F)(F)F)c(C(F)(F)C(F)(F)F)nn2C)ccc1C#N [Compound A1, 3-(4-cyano-2-methyl-Benzoyl) amino-4-cyano-N-(2-methyl-5-pentafluoroethyl-4-trifluoromethyl-2H-pyrazol-3-yl)-benzamide]
≥ 80%: Heliothis virescens | Diabrotica balteata | Tetranychus urticae | Thrips tabaci

Cn1nc(C(F)(F)C(F)(F)F)c(C(F)(F)F)c1NC(=O)c1ccc(C#N)c(NC(=O)c2ccccc2)c1 [Compound A2]
not listed: Tetranychus urticae
≥ 80%: all other assays above

Cn1nc(C(F)(F)C(F)(F)F)c(C(F)(F)F)c1NC(=O)c1cccc(NC(=O)c2ccccc2)c1F [Compound B16]
≥ 80%: all assays above

Cn1nc(C(F)(F)C(F)(F)F)c(C(F)(F)F)c1NC(=O)c1cccc(NC(=O)c2ccccc2F)c1 [Compound D1]
not listed: Tetranychus urticae
≥ 80%: all other assays above

Cn1nc(C(F)(F)C(F)(F)F)c(C(F)(F)F)c1NC(=O)c1cccc(NC(=O)c2ccccc2Cl)c1 [Compound D3]
not listed: Tetranychus urticae
≥ 80%: all other assays above

Cn1nc(C(F)(F)C(F)(F)F)c(C(F)(F)F)c1NC(=O)c1cccc(NC(=O)c2cc(Cl)ccc2F)c1 [Compound D8]
≥ 80%: all assays above

Cn1nc(C(F)(F)C(F)(F)F)c(C(F)(F)F)c1NC(=O)c1cccc(NC(=O)c2ccc([N+](=O)[O-])cc2Cl)c1 [Compound D9]
≥ 80%: Diabrotica balteata | Tetranychus urticae | Thrips tabaci

Cn1nc(C(F)(F)C(F)(F)F)c(C(F)(F)F)c1NC(=O)c1cccc(NC(=O)c2ccc(C(F)(F)F)cc2)c1 [Compound D13]
not listed: Tetranychus urticae
≥ 80%: all other assays above

Cn1nc(C(F)(F)C(F)(F)F)c(C(F)(F)F)c1NC(=O)c1cccc(NC(=O)c2ccccc2)c1 [Compound D16]
≥ 80%: Spodoptera littoralis | Plutella xylostella | Diabrotica balteata | Thrips tabaci

Cn1nc(C(F)(F)C(F)(F)F)c(C(F)(F)F)c1NC(=O)c1cccc(NC(=O)c2ccc(F)cc2)c1 [Compound D17]
not listed: Heliothis virescens
≥ 80%: all other assays above

Cn1nc(C(F)(F)C(F)(F)F)c(C(F)(F)F)c1NC(=O)c1cccc(NC(=O)c2ccc(F)cc2Cl)c1 [Compound D19]
not listed: Heliothis virescens
≥ 80%: all other assays above

Cn1nc(C(F)(F)C(F)(F)F)c(C(F)(F)F)c1NC(=O)c1cccc(NC(=O)c2cccc(F)c2F)c1 [Compound D21]
not listed: Tetranychus urticae
≥ 80%: all other assays above

Cn1nc(C(F)(F)C(F)(F)F)c(C(F)(F)F)c1NC(=O)c1cccc(NC(=O)c2ccc(F)cc2F)c1 [Compound D22]
not listed: Tetranychus urticae
≥ 80%: all other assays above
